≈ marks a conversion by molar mass, not a printed value.
Experiments:
[1] = system: Vibrio parahaemolyticus; test: Antimicrobial activity against Vibrio parahaemolyticus after 18 to 20 hr by agar dilution method; assay type: functional
[2] = system: Plesiomonas; test: Antimicrobial activity against Plesiomonas after 18 to 20 hr by agar dilution method; assay type: functional
[3] = system: Shigella sonnei; test: Antimicrobial activity against Shigella sonnei after 18 to 20 hr by agar dilution method; assay type: functional
[4] = system: Priestia megaterium; test: Antimicrobial activity against Bacillus megaterium after 18 to 20 hr by agar dilution method; assay type: functional
[5] = system: Vibrio mimicus; test: Antimicrobial activity against Vibrio mimicus after 18 to 20 hr by agar dilution method; assay type: functional
[6] = system: Escherichia coli; test: Antimicrobial activity against Escherichia coli NCTC 10418 after 18 to 20 hr by agar dilution method; assay type: functional
[7] = Cytotoxicity against Homo sapiens (human) MT4 cells after 5 days by MTT assay; assay type: cell-based
[8] = system: Pseudomonas aeruginosa; test: Antimicrobial activity against Pseudomonas aeruginosa after 18 to 20 hr by agar dilution method; assay type: functional
[9] = system: Salmonella typhimurium; test: Antimicrobial activity against Salmonella enterica subsp. enterica serovar Typhimurium after 18 to 20 hr by agar dilution method; assay type: functional
[10] = system: Edwardsiella tarda; test: Antimicrobial activity against Edwardsiella tarda after 18 to 20 hr by agar dilution method; assay type: functional
[11] = system: Vibrio cholerae; test: Antimicrobial activity against Vibrio cholerae 01 after 18 to 20 hr by agar dilution method; assay type: functional; conditions: 1
[12] = system: Salmonella paratyphi; test: Antimicrobial activity against Salmonella enterica subsp. enterica serovar Paratyphi A after 18 to 20 hr by agar dilution method; assay type: functional
[13] = system: Vibrio fluvialis; test: Antimicrobial activity against Vibrio fluvialis after 18 to 20 hr by agar dilution method; assay type: functional
[14] = system: Vibrio cholerae; test: Antimicrobial activity against Vibrio cholerae 0139 after 18 to 20 hr by agar dilution method; assay type: functional; conditions: 139
[15] = system: Mycobacterium tuberculosis; test: Antimycobacterial activity against Mycobacterium tuberculosis H37Rv ATCC 27294 at 6.25 ug/ml by MABA; assay type: functional
[16] = system: Human immunodeficiency virus 1; test: Antiviral activity against Human immunodeficiency virus 1 IIIB infected MT4 cells assessed as inhibition of virus-induced cytopathicity after 5 days by MTT assay; assay type: functional, organism-based; conditions: MT4, 120 h
[17] = system: Proteus mirabilis; test: Antimicrobial activity against Proteus mirabilis after 18 to 20 hr by agar dilution method; assay type: functional
[18] = system: Salmonella enteritidis; test: Antimicrobial activity against Salmonella enterica subsp. enterica serovar Enteritidis after 18 to 20 hr by agar dilution method; assay type: functional
[19] = system: Human immunodeficiency virus 1; test: Antiviral activity against Human immunodeficiency virus 1 IIIB infected MT4 cells assessed as protection against viral infection after 5 days by MTT assay; assay type: functional; parameters: concentration or dose not given beside the values
[20] = system: Human immunodeficiency virus 1; test: Antiviral activity against Human immunodeficiency virus 1 IIIB infected CEM cells assessed as inhibition of virus-induced cytopathicity after 6 days by XTT assay; assay type: functional, organism-based; conditions: CCRF-CEM, 144 h
[21] = system: Enterobacter; test: Antimicrobial activity against Enterobacter after 18 to 20 hr by agar dilution method; assay type: functional
[22] = system: Klebsiella pneumoniae; test: Antimicrobial activity against Klebsiella pneumoniae subsp. ozaenae after 18 to 20 hr by agar dilution method; assay type: functional
[23] = Cytotoxicity against Homo sapiens (human) CEM cells after 5 days by MTT assay; assay type: cell-based; conditions: CEM cells (CCRF-CEM)
[24] = system: Citrobacter freundii; test: Antimicrobial activity against Citrobacter freundii after 18 to 20 hr by agar dilution method; assay type: functional
[25] = system: Human immunodeficiency virus 1; test: Antiviral activity against Human immunodeficiency virus 1 IIIB infected CEM cells assessed as protection against viral infection after 6 days by XTT assay; assay type: functional, CCRF-CEM; parameters: concentration or dose not given beside the values
[26] = system: Proteus vulgaris; test: Antimicrobial activity against Proteus vulgaris after 18 to 20 hr by agar dilution method; assay type: functional
[27] = system: Hepatitis C virus; test: Antiviral activity against Hepatitis C virus BM4-5 infected in Huh7 cells assessed as inhibition of viral RNA replication by phosphor screening method; assay type: functional, Hepacivirus hominis, Huh-7
[28] = system: Klebsiella pneumoniae; test: Antimicrobial activity against Klebsiella pneumoniae after 18 to 20 hr by agar dilution method; assay type: functional
[29] = system: Morganella morganii; test: Antimicrobial activity against Morganella morganii after 18 to 20 hr by agar dilution method; assay type: functional
[30] = system: Shigella boydii; test: Antimicrobial activity against Shigella boydii after 18 to 20 hr by agar dilution method; assay type: functional
[31] = system: Staphylococcus aureus; test: Antimicrobial activity against Staphylococcus aureus after 18 to 20 hr by agar dilution method; assay type: functional
[32] = Cytotoxicity against Homo sapiens (human) HuH7 cells assessed as cell growth at 50 ug/ml after 3 days by Neutral red assay; assay type: cell-based, Huh-7; conditions: read-out: Activity
[33] = system: Salmonella typhi; test: Antimicrobial activity against Salmonella enterica subsp. enterica serovar Typhi after 18 to 20 hr by agar dilution method; assay type: functional

COc1cc(Cc2cnc(/N=C3\C(=O)N(CN4CCN(c5ccccn5)CC4)c4ccc(Cl)cc43)nc2N)cc(OC)c1OC
MIC [1]: 1.22 µg/mL (≈ 1.94 µM)
MIC [2]: 9.76 µg/mL (≈ 15.5 µM)
MIC [3]: 1250 µg/mL (≈ 1990 µM)
MIC [4]: 1250 µg/mL (≈ 1990 µM)
MIC [5]: 1.22 µg/mL (≈ 1.94 µM)
MIC [6]: 1250 µg/mL (≈ 1990 µM)
CC50 at 120 h [7]: 39.2 µg/mL (≈ 62.3 µM)
MIC [8]: 1250 µg/mL (≈ 1990 µM)
MIC [9]: 1250 µg/mL (≈ 1990 µM)
MIC [10]: 1250 µg/mL (≈ 1990 µM)
MIC [11]: 9.76 µg/mL (≈ 15.5 µM)
MIC [12]: 312 µg/mL (≈ 497 µM)
MIC [13]: 1250 µg/mL (≈ 1990 µM)
MIC [14]: 312 µg/mL (≈ 497 µM)
inhibition at 6.25 µg/mL [15]: 23%
EC50 [16]: > 39.2 µg/mL
MIC [17]: 1250 µg/mL (≈ 1990 µM)
MIC [18]: 1250 µg/mL (≈ 1990 µM)
Activity [19]: 16.6%
EC50 [20]: > 29.4 µg/mL
MIC [21]: 1250 µg/mL (≈ 1990 µM)
MIC [22]: 625 µg/mL (≈ 993 µM)
CC50 at 120 h [23]: 29.4 µg/mL (≈ 46.7 µM)
MIC [24]: 625 µg/mL (≈ 993 µM)
Activity [25]: 23.55%
MIC [26]: 625 µg/mL (≈ 993 µM)
inhibition (INH) [27]: 89%
MIC [28]: 1250 µg/mL (≈ 1990 µM)
MIC [29]: 312 µg/mL (≈ 497 µM)
MIC [30]: 2.44 µg/mL (≈ 3.88 µM)
MIC [31]: 1250 µg/mL (≈ 1990 µM)
viability at 72 h, 50 ug/ml [32]: 101%
MIC [33]: 1250 µg/mL (≈ 1990 µM)

COc1cc(Cc2cnc(/N=C3\C(=O)N(CN4CCC(C)CC4)c4ccc(Cl)cc43)nc2N)cc(OC)c1OC
MIC [1]: 2.44 µg/mL (≈ 4.32 µM)
MIC [2]: 39.1 µg/mL (≈ 69.1 µM)
MIC [3]: 1250 µg/mL (≈ 2210 µM)
MIC [4]: 625 µg/mL (≈ 1110 µM)
MIC [5]: 1.22 µg/mL (≈ 2.16 µM)
MIC [6]: 1250 µg/mL (≈ 2210 µM)
CC50 at 120 h [7]: 67.4 µg/mL (≈ 119 µM)
MIC [8]: 1250 µg/mL (≈ 2210 µM)
MIC [9]: 1250 µg/mL (≈ 2210 µM)
MIC [10]: 1250 µg/mL (≈ 2210 µM)
MIC [11]: 4.88 µg/mL (≈ 8.64 µM)
MIC [12]: 312 µg/mL (≈ 553 µM)
MIC [13]: 1250 µg/mL (≈ 2210 µM)
MIC [14]: 1250 µg/mL (≈ 2210 µM)
inhibition at 6.25 µg/mL [15]: 15%
EC50 [16]: > 67.4 µg/mL
MIC [17]: 1250 µg/mL (≈ 2210 µM)
MIC [18]: 1250 µg/mL (≈ 2210 µM)
Activity [19]: 41.7%
EC50 [20]: > 46.3 µg/mL
MIC [21]: 1250 µg/mL (≈ 2210 µM)
MIC [22]: 625 µg/mL (≈ 1110 µM)
CC50 at 120 h [23]: 46.3 µg/mL (≈ 81.9 µM)
MIC [24]: 312 µg/mL (≈ 553 µM)
Activity [25]: 22.07%
MIC [26]: 1250 µg/mL (≈ 2210 µM)
inhibition (INH) [27]: 81%
MIC [28]: 1250 µg/mL (≈ 2210 µM)
MIC [29]: 1250 µg/mL (≈ 2210 µM)
MIC [30]: 4.88 µg/mL (≈ 8.64 µM)
MIC [31]: 1250 µg/mL (≈ 2210 µM)
viability at 72 h, 50 ug/ml [32]: 108%
MIC [33]: 1250 µg/mL (≈ 2210 µM)

COc1cc(Cc2cnc(/N=C3\C(=O)N(CN4CCN(Cc5ccccc5)CC4)c4ccc(Cl)cc43)nc2N)cc(OC)c1OC
MIC [1]: 9.76 µg/mL (≈ 15.2 µM)
MIC [2]: 39.1 µg/mL (≈ 60.8 µM)
MIC [3]: 1250 µg/mL (≈ 1950 µM)
MIC [4]: 625 µg/mL (≈ 973 µM)
MIC [5]: 2.44 µg/mL (≈ 3.8 µM)
MIC [6]: 625 µg/mL (≈ 973 µM)
CC50 at 120 h [7]: 36.1 µg/mL (≈ 56.2 µM)
MIC [8]: 1250 µg/mL (≈ 1950 µM)
MIC [9]: 625 µg/mL (≈ 973 µM)
MIC [10]: 625 µg/mL (≈ 973 µM)
MIC [11]: 4.88 µg/mL (≈ 7.6 µM)
MIC [12]: 625 µg/mL (≈ 973 µM)
MIC [13]: 625 µg/mL (≈ 973 µM)
MIC [14]: 625 µg/mL (≈ 973 µM)
inhibition at 6.25 µg/mL [15]: 50%
EC50 [16]: > 36.1 µg/mL
MIC [17]: 625 µg/mL (≈ 973 µM)
MIC [18]: 625 µg/mL (≈ 973 µM)
Activity [19]: 41.8%
EC50 [20]: > 94.7 µg/mL
MIC [21]: 625 µg/mL (≈ 973 µM)
MIC [22]: 1250 µg/mL (≈ 1950 µM)
CC50 at 120 h [23]: 94.7 µg/mL (≈ 147 µM)
MIC [24]: 625 µg/mL (≈ 973 µM)
Activity [25]: 22.33%
MIC [26]: 625 µg/mL (≈ 973 µM)
inhibition (INH) [27]: 66%
MIC [28]: 625 µg/mL (≈ 973 µM)
MIC [29]: 625 µg/mL (≈ 973 µM)
MIC [30]: 39.1 µg/mL (≈ 60.8 µM)
MIC [31]: 625 µg/mL (≈ 973 µM)
viability at 72 h, 50 ug/ml [32]: 79%
MIC [33]: 625 µg/mL (≈ 973 µM)

COc1c(N2CCNC(C)C2)c(F)cc2c(=O)c(C(=O)O)cn(C3CC3)c12 (stereo not drawn) [GATIFLOXACIN]
MIC [1]: 9.77 µg/mL (≈ 26 µM)
MIC [2]: 2.44 µg/mL (≈ 6.5 µM)
MIC [3]: 0.08 µg/mL (≈ 0.213 µM)
MIC [4]: 0.08 µg/mL (≈ 0.213 µM)
MIC [5]: 0.15 µg/mL (≈ 0.4 µM)
MIC [6]: 0.02 µg/mL (≈ 0.0533 µM)
MIC [8]: 0.15 µg/mL (≈ 0.4 µM)
MIC [9]: 0.02 µg/mL (≈ 0.0533 µM)
MIC [10]: 0.02 µg/mL (≈ 0.0533 µM)
MIC [11]: 0.02 µg/mL (≈ 0.0533 µM)
MIC [12]: 0.02 µg/mL (≈ 0.0533 µM)
MIC [13]: 0.02 µg/mL (≈ 0.0533 µM)
MIC [14]: 0.02 µg/mL (≈ 0.0533 µM)
MIC [17]: 0.02 µg/mL (≈ 0.0533 µM)
MIC [18]: 0.02 µg/mL (≈ 0.0533 µM)
MIC [21]: 0.02 µg/mL (≈ 0.0533 µM)
MIC [22]: 0.08 µg/mL (≈ 0.213 µM)
MIC [24]: 0.08 µg/mL (≈ 0.213 µM)
MIC [26]: 0.02 µg/mL (≈ 0.0533 µM)
MIC [28]: 0.08 µg/mL (≈ 0.213 µM)
MIC [29]: 0.02 µg/mL (≈ 0.0533 µM)
MIC [30]: 1.22 µg/mL (≈ 3.25 µM)
MIC [31]: 0.02 µg/mL (≈ 0.0533 µM)
MIC [33]: 0.02 µg/mL (≈ 0.0533 µM)

Reference: ChEMBL document CHEMBL3045426, “Synthesis, Antiviral and Antibacterial Activities of Isatin Mannich Bases” (Med Chem Res, 2005)
